Data published in publication PMC4749533, “Scintillation proximity assay (SPA) as a new approach to determine a ligand’s kinetic profile. A case in point for the adenosine A1 receptor” (Purinergic Signalling, 2015).

How the values were obtained:
Format in all cases: binding
[1] = target: T1, human adenosine A1 receptor (hA1R) (Homo sapiens, UniProt P30542); experiment: Competition association with [3H]-DPCPX, filtration assay; settings: 28 °C, 1 mM GTP present for LUF5834, CCPA, NECA; for Filtration assay RT: 1/k off
T1 construct: Steve Hill (University of Nottingham, UK); host or cells: CHO cells stably expressing hA1R; membrane preparation
T1 sequence (P30542 1-326): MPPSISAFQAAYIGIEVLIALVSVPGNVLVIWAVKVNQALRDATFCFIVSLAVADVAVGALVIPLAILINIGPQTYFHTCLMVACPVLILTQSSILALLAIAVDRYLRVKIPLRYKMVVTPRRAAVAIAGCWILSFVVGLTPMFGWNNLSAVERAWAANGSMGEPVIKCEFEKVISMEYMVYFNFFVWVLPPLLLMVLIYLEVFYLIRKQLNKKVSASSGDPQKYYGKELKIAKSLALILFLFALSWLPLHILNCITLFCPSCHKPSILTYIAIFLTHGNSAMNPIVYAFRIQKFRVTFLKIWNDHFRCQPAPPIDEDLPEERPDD
Protocol: (§1) The binding kinetics of unlabeled ligands was quantified using the competition association assay based on the theoretical framework by Motulsky and Mahan.
The competition association assay was initiated by adding membrane aliquots (5 μg per well) at different time points for a total of 2 h in the absence or presence of competing ligand.

[2] = target: T1, human adenosine A1 receptor (hA1R); experiment: Competition association with [3H]-DPCPX, SPA technology; settings: 28 °C, 1 mM GTP present for LUF5834, CCPA, NECA; for SPA RT: 1/k off
Protocol: as §1
The membrane-bead mixture was prepared as described under “Radioligand displacement experiments.” Once the membrane-bead mixture was added to the wells of an Isoplate-96 Microplate, measurements of radioligand bound to the receptor were started immediately and continued every 30 s for 2 h, using the 2450 MicroBeta^2 Plate Counter.

[3] = target: T1, human adenosine A1 receptor (hA1R); experiment: Radioligand displacement of [3H]-DPCPX, SPA technology; settings: CHO-hA1R membranes, one-state model
Protocol: (§2) Non-specific binding (NSB) was determined in the presence of 100 μM CPA. Each condition was measured in duplicate, and at least three individual experiments were performed.
A mixture of 5 μg protein membrane and 1 mg SPA bead was pre-coupled in a shaker (Vibrax VXR, IKA) in a volume of 50 μL of assay buffer at room temperature for 30 min. Then, together with the radioligand and competing ligands, the membrane-bead mixture was dispatched in an Isoplate-96 Microplate (Perkin Elmer, Groningen, the Netherlands), in a final reaction volume of 100 μL. The plate was incubated for 1 h inside the counting chamber of a 2450 MicroBeta^2 Plate Counter (Perkin Elmer, Groningen, the Netherlands) at the ambient temperature of 28 °C. The binding values were recorded in corrected counts per minute (CCPM).

[4] = target: T1, human adenosine A1 receptor (hA1R); experiment: Radioligand displacement of [3H]-DPCPX, filtration assay; settings: CHO-hA1R membranes, one-state model
Protocol: as §2
Membrane aliquots containing 5 μg protein were incubated together with the radioligand and competing ligands in a total volume of 100 μL assay buffer in a 96-well plate. After 1 h incubation at room temperature, the incubation was terminated by rapid vacuum filtration to separate the bound and free radioligand through 96-well GF/B filter plates using a PerkinElmer Filtermate-harvester (Perkin Elmer, Groningen, the Netherlands). Filters were subsequently washed three times with ice-cold wash buffer (50 mM Tris-HCl [pH 7.4], supplemented with 5 mM MgCl2). After 30 min of dehydration of the filter plate at 50 °C, the filter-bound radioactivity was determined by scintillation spectrometry using the 2450 MicroBeta^2 Plate Counter. The binding values were recorded in both counts per minute (CPM) and disintegrations per minute (DPM).

| SMILES | Filtration assay RT [1] [min] | SPA RT [2] [min] | Ki [3] [nM] | Filtration assay k off (k4) ([1]; […] [3H]-DPCPX) [s⁻¹] | Filtration assay k on (k3) ([1]; […] [3H]-DPCPX) [M⁻¹ s⁻¹] | Kd ([1]; k off/k on, read-out: Filtration assay Kinetic K D) [nM] | Ki [4] [nM] | SPA k off (k4) ([2]; […] [3H]-DPCPX) [s⁻¹] | SPA k on (k3) ([2]; […] [3H]-DPCPX) [M⁻¹ s⁻¹] | Kd ([2]; k off/k on, read-out: SPA Kinetic K D) [nM] |
| --- | --- | --- | --- | --- | --- | --- | --- | --- | --- | --- |
| OC[C@H]1O[C@@H](n2cnc3c(NC4CCCC4)nc(Cl)nc32)[C@H](O)[C@@H]1O [CCPA, 2-chloro-N^6-cyclopentyladenosine] | 0.68 ± 0.01 | 1.4 ± 0.1 |  |  |  |  |  |  |  |  |
| CCCn1c(=O)c2[nH]c(C3CCCC3)nc2n(CCC)c1=O [DPCPX, 1,3-Dipropyl-8-cyclopentyl-xanthine] | 3.7 ± 0.4 | 2.0 ± 0.1 |  |  |  |  |  |  |  |  |
| CCCn1c(=O)c2[nH]c(C3CCCC3)nc2n(CCCOC(=O)c2ccc(S(=O)(=O)F)cc2)c1=O [FSCPX, 8-cyclopentyl-3-N-[3-((3-(4-fluorosulphonyl)benzoyl)-oxy)-propyl]-1-N-propyl-xanthine] | 167 ± 56 | 156 ± 31 |  |  |  |  |  |  |  |  |
| N#Cc1c(N)nc(SCc2ncc[nH]2)c(C#N)c1-c1ccc(O)cc1 [LUF5834] | 4.4 ± 0.5 | 2.0 ± 0.1 | 6.2 ± 0.5 | 0.00383 ± 0.0005 | 1.03e+06 ± 100000 | 3.7 ± 0.5 | 4.3 ± 0.6 | 0.00833 ± 0.00083 | 2.17e+06 ± 830000 | 3.9 ± 1.5 |
